Like-named read-outs stand apart in the source and are kept apart here.
Tests used:
Format in all cases: cell-based
[1] = test system: Candida albicans 6862 (clinical isolate); assay: microbe, parasite or virus in culture
Protocol: (§1) Four compounds were supplied as an aqueous solution, 400 μM. Serial dilutions of each test peptide were prepared in addition to a control, which was a conventional antifungal drug, Amphoteracin B. Amphteracin B is obtained from Invitrogen or Melford laboratories.
(§2) Initial testing of the peptides was carried out against the following organisms: • 1) Aspergillus fumigatus AF293 (culture collection strain NCPF7367) • 2) Candida albicans 6862 (clinical isolate) • 3) Fusarium spp 5889 (clinical isolate) • 4) Fusarium spp 6507 (clinical isolate) • 5) Aspergillus terreus (clinical isolate) • 6) Aspergillus niger (clinical isolate) • 7) Staphylococcus aureus (Oxford strain, which is a standard reference strain used in MIC testing)
(§3) The bacterium S. aureus was tested with each of the peptides as a control. A suspension of each organism in an appropriate growth medium was added to the, dilutions of the peptides in order to give concentration ranges of 40 μM to 0.04 μM for each of the peptides, and 64-0.025 μg/ml for amphotericin B. Fungal strains were tested in RPMI media. RPMI is standard Roswell Park Memorial Institute medium (Morton, H. C., (1970) A survey of Commercially Available Tissue Culture Media. In Vitro 6: 89-108).
(§4) The final inoculum for S. aureus was 5×10^4 cfu/ml. The final inoculum for C. albicans was 2×10^3 cfu/ml. The final inoculum for Aspergillus fumigatus and for Fusarium spp was 2×10^4 cfu/ml.
(§5) Candida and S. aureus plates were read after 24 hrs incubation and the Aspergillus and Fusarium strains read after 48 hrs. The MIC was taken as the lowest drug or compound concentration that caused >80% reduction in growth compared with a drug free control.

Fusarium solani 1 (FS1) = assay: Antifungal MIC (Example 4); set-up: MIC values (>80% reduction) FS1, positive control: unit not given beside the values; details: for MIC values (>80% reduction) FS1: Fusarium solani 1, peptides, Tables 4 and 5
Protocol: (§6) The inventor expanded the work conducted in Example 1 by testing an expanded library of peptides derived from either apolipoprotein B or apolipoprotein E in order to further evaluate polypeptides in accordance with the invention. These experiments were conducted using the following fungal species:
(§7) FS1-FS4 were obtained from Bristol PHLS (British Public Health Laboratory Service UK). Aspergillus fumigatus 293 is publicly available as culture collection strain NCPF7367 (National Collection of Pathogenic Fungi Public Health Laboratory, Mycological Reference Laboratory Myrtle Road, Kingsdown, Bristol BS2 8EL) The Candida albicans was a clinical isolate obtained by standard means.
(§8) The methods used to determine, the IC50 values for each peptide were as described in the Example 1.

[2] = test system: Aspergillus fumigatus AF293 (NCPF7367); assay: microbe, parasite or virus in culture; set-up: MIC values (>80% reduction) AF, positive control: unit not given beside the values; details: for MIC values (>80% reduction) AF: Aspergillus fumigatus 293, peptides, Tables 4 and 5
Protocol: as §1, §2, §3, §4, §5
Aspergillus fumigatus 293 (AF); and
as §7, with “means. […]” for “means.”

[3] = test system: Staphylococcus aureus (Oxford strain); assay: microbe, parasite or virus in culture
Protocol: as §1, §2, §3
S. aureus was tested in Isosensitest broth. Isosentitest agar is a standard MIC medium used by many hospital labs for bacterial MICs using a disc diffusion method. The reference standard is Oxoid CM471. Also available in broth form, CM473, for the bacterial broth dilution assay method. NCCLS ref M7-A4. Both the NCCLS methods quoted are the standard methods.
as §4, §5

Fusarium solani 4 (FS4) = assay: Antifungal MIC (Example 4); set-up: MIC values (>80% reduction) FS4, positive control: unit not given beside the values; details: for MIC values (>80% reduction) FS4: Fusarium solani 4, peptides, Tables 4 and 5
Protocol: as §6, §7, §8

[4] = test system: Fusarium spp 6507 (clinical isolate); assay: Antifungal MIC broth dilution (Example 1); details: RPMI, 48 hrs, >80% reduction
Protocol: as §1, §2, §3, §4, §5

[5] = test system: Fusarium spp 5889 (clinical isolate); assay: Antifungal MIC broth dilution (Example 1); details: RPMI, 48 hrs, >80% reduction
Protocol: as §1, §2, §3, §4, §5

Fusarium solani 3 (FS3) = assay: Antifungal MIC (Example 4); set-up: MIC values (>80% reduction) FS3, positive control: unit not given beside the values; details: for MIC values (>80% reduction) FS3: Fusarium solani 3, peptides, Tables 4 and 5
Protocol: as §6, §7, §8

Fusarium solani 2 (FS2) = assay: Antifungal MIC (Example 4); set-up: MIC values (>80% reduction) FS2, positive control: unit not given beside the values; details: for MIC values (>80% reduction) FS2: Fusarium solani 2, peptides, Tables 4 and 5
Protocol: as §6, §7, §8

[6] = test system: Aspergillus niger (clinical isolate); assay: microbe, parasite or virus in culture
Protocol: as §1, §2, §3, §5

[7] = test system: Aspergillus terreus (clinical isolate); assay: microbe, parasite or virus in culture
Protocol: as §1, §2, §3, §5

[8] = test system: Acanthamoeba polyphaga (trophozoites), Ros strain; assay: Microtitre plate assay against Acanthamoeba trophozoites (Example 2); details: lowest concentration killing the trophozoite challenge
Description: The test compounds were screened against the trophozoites of clinical isolates of Acanthamoeba spp. using a microtitre plate assay procedure. The organisms were Acanthamoeba polyphaga. (see for details on the strain and methodology used: Hughes, R. & Kilvington, S. (2001). A comparison of hydrogen peroxide contact lens disinfection systems and solutions against Acanthamoeba polyphaga. Antimicrob. Agents Chemother. 45: 2038-2043.) Acanthamoeba polyphaga Ros strain was used throughout the study. The strain was originally isolated from an unpublished case of acanthamoeba keratitis in the United Kingdom in 1994.
Use of the microliter plate assay enabled the determination of the minimum amoebacidal trophozoite concentration (MATC), which is the minimum amoebacidal trophozoite concentration (μg/ml)=lowest concentration killing the trophozoite challenge […] and also the minimum inhibitory trophozoite concentration (MITC), which is the minimum inhibitory trophozoite concentration (μg/ml)=lowest concentration stopping the trophozoites from dividing or killing about 50% of population. The values may then be used to select drug concentrations for use in time-kill experiments to study the kinetics of Acanthamoeba killing.

fungi = details: overall statement on the fungi tested
Protocol: as §1, §2
The bacterium S. aureus was tested with each of the peptides as a control. […] RPMI is standard Roswell Park Memorial Institute medium (Morton, H. C., (1970) A survey of Commercially Available Tissue Culture Media. In Vitro 6: 89-108).
as §5, §8

[9] = test system: Candida albicans (CA), clinical isolate; assay: Antifungal MIC (Example 4); details: peptides, Tables 4 and 5
Protocol: as §6, §7, §8

Compound	antifungal activity (in words) (fungi)	MIC values (>80% reduction) CA [9]	MIC values (>80% reduction) FS1 (Fusarium solani 1 (FS1))	MIC values (>80% reduction) AF [2]	MIC values (>80% reduction) FS4 (Fusarium solani 4 (FS4))	MIC values (>80% reduction) FS3 (Fusarium solani 3 (FS3))	MIC values (>80% reduction) FS2 (Fusarium solani 2 (FS2))	other results
C[C@@H]1[C@H](O)[C@@H](C)/C=C/C=C/C=C/C=C/C=C/C=C/C=C/[C@H](O[C@@H]2O[C@H](C)[C@@H](O)[C@H](N)[C@@H]2O)C[C@@H]2O[C@](O)(C[C@@H](O)C[C@@H](O)[C@H](O)CC[C@@H](O)C[C@@H](O)CC(=O)O[C@H]1C)C[C@H](O)[C@H]2C(=O)O [Amphotericin B, reference compound]								MIC ([1]; Candida albicans, C. albicans 6862, RPMI, read after 24 hrs, >80% reduction in growth, read-out: MIC): 0.6 µg/mL; MIC values (>80% reduction) FS1, positive control (Fusarium solani 1 (FS1); Amphotericin B, first of five values, unit not given): 0.15; MIC values (>80% reduction) AF, positive control ([2]; Amphotericin B, fifth of five values, unit not given): 0.04; MIC ([2]; NCPF7367, Aspergillus fumigatus, RPMI, read after 48 hrs, >80% reduction, read-out: MIC): 0.6 µg/mL; MIC ([3]; Staphylococcus aureus, Staph aureus (Oxford), Isosensitest broth, 24 hrs, read-out: MIC): > 40 µg/mL; MIC values (>80% reduction) FS4, positive control (Fusarium solani 4 (FS4); Amphotericin B, fourth of five values, unit not given): 0.15; MIC ([4]; read-out: MIC): 1.25 µg/mL; MIC ([5]; read-out: MIC): 2.5 µg/mL; MIC values (>80% reduction) FS3, positive control (Fusarium solani 3 (FS3); Amphotericin B, third of five values, unit not given): 0.3; MIC values (>80% reduction) FS2, positive control (Fusarium solani 2 (FS2); Amphotericin B, second of five values, unit not given): 1.25; MIC ([6]; Aspergillus niger, RPMI, >80% reduction, read-out: MIC): 0.15 µg/mL; MIC ([7]; Aspergillus terreus, RPMI, >80% reduction, read-out: MIC): 1.25 µg/mL
Ac-WRKWRKRLLLRKLRKRLL-NH2 [MU_114]	showed antifungal activity							MATC = minimum amoebacidal trophozoite concentration ([8]; listed as MU 114): 98.7 µM; MATC = minimum amoebacidal trophozoite concentration ([8]; listed as MU114): 93.8 µM; MIC ([1]; 6862 (clinical isolate, 24 h)): >40 µM; MIC ([2]; AF293 (NCPF7367, 48 h)): >40 µM; MIC ([3]; Oxford strain, 24 h): 40 µM; MIC [4]: 40 µM; MIC [5]: 5 µM; MIC ([6]; clinical isolate): 20 µM; MIC [7]: >40 µM
FRKFRKRFFFRKFRKRFF (Artficial polypeptide designated MU7) [MU_7]	particularly effective antifungal peptides	>40 µM	5 µM	>40 µM	20 µM	5 µM	2.5 µM	MATC = minimum amoebacidal trophozoite concentration [8]: 93.1 µM
RRKRRKRRRRRKRRKRRR (Artificial polypeptide designated MU 16) [MU_16]	particularly effective antifungal peptides	10 µM	1.25 µM	40 µM	2.5 µM	1.25 µM	1.25 µM	
RRWRKRWRKWRWRKRWRK (Artificial polypeptide designated MU 28) [MU_28, 42]	good antifungal activity	>40 µM	0.6 µM	10 µM	2.5 µM	1.25 µM	0.6 µM	
WRKWRKRWW (Artificial polypeptide designated MU 45) [MU_45, 87; monomer on which MU 4 is based]	ineffective	>40 µM	40 µM	>40 µM	>40 µM	40 µM	40 µM	
WRWKKKWRKWRWKKKWRK (Artificial polypeptide designated MU 26) [MU_26, 89]	reduced activity	>40 µM	5 µM	>40 µM	10 µM	5 µM	5 µM	
WRWRKRWRKWRWRKRWRK (Artificial polypeptide designated MU 27) [MU_27]	good antifungal activity	20 µM	0.6 µM	5 µM	1.25 µM	0.6 µM	0.6 µM	
WRWRRRWRKWRWRRRWRK (Artificial polypeptide designated MU 25) [MU_25, 88]	reduced activity	>40 µM	5 µM	10 µM	20 µM	10 µM	5 µM	
YRKYRKRYYYRKYRKRYY (Artificial polypeptide designated GIN 41 or MU6) [MU_6]	particularly effective antifungal peptides	>40 µM	10 µM	>40 µM	20 µM	5 µM	5 µM	

From patent US8916516B2, “Treatment of fungal and/or protist infections” (AI2 Limited, priority 2005, dated 2014)
